{"source": "paper PMC7358525", "about": "“Characterization of PF-6142, a Novel, Non-Catecholamine Dopamine Receptor D1 Agonist, in Murine and Nonhuman Primate Models of Dopaminergic Activation” (Frontiers in Pharmacology, 2020)", "key": {"[1]": {"experiment": "PK, brain exposure and plasma/brain tissue binding studies", "assay_type": "in vivo", "details": "data not presented", "protocol": "(§1) Across the set of experiments, PK was either collected from satellite animals or in separate, dedicated studies. In addition to plasma PK, exposures were obtained in brain tissue for rat and mouse, and plasma protein binding and brain tissue binding were measured. Using the measured exposures, partitioning, and binding parameters, and the\nExposures increased in a generally dose proportional manner across most of the doses used in the pharmacology studies, and inter animal variability was typically low. Exposures were obtained in brain tissues for rat and mouse, and plasma protein binding and brain tissue binding were measured."}, "[2]": {"test_system": "prepulse inhibition of startle", "experiment": "Mouse prepulse inhibition (PPI) and acoustic startle", "assay_type": "in vivo", "protocol": "Drug and behaviorally naïve adult male C57BL/6J mice (9–11 weeks of age; n=8 per dose group) were used for PPI experiments. Subjects were tested individually in SR-Lab acoustic startle chambers (San Diego Instruments, San Diego CA, USA) equipped with a restrainer mounted atop a piezoelectric accelerometer which measured transduced movement in response to the presentation of audio stimuli presented through a speaker mounted 20 cm above the animal. Subjects were acclimated to an anteroom adjacent to the testing room at minimum 60 min prior to testing. Test sessions began with a 5 min acclimation period to background noise (65 dB) followed by presentation of six randomized repetitions of the 120 dB startle stimulus (40 ms duration) presented alone or paired in combination with a pre-pulse stimulus of 68, 72, or 74 db (20 msec in duration) presented 80 msec prior to the 120 dB startle stimulus, which was equivalent to +3, +7, and +9 db over background noise, respectively. Data were also recorded for no stimulus values to evaluate background level of response. The inter-trial interval between stimulus presentations was randomized and ranged from 10 to 20 s. Test compounds were administered 30 min (s.c.) prior to testing. […] Percent PPI was calculated for each individual subject as the relative change in the 120 dB startle response in the presence of each prepulse intensity using the formula: 100-((prepulse-pulse)/pulse)*100 as previously described ([Ralph-Williams et al., 2003]).\nThe experiment was analyzed using a two-way mixed model ANOVA (lme4 library in R software). The model included prepulse stimulus intensity levels, treatment (as all combinations of pre-treatment and treatment), and their interaction as fixed factors and random intercept, random slope for each animal as random factors. […] In order to adjust for multiple hypothesis testing we used false discover rate method which controls the expected proportion of false discoveries among the rejected hypotheses. For all statistical tests, p < 0.05 between groups was considered significant."}, "human D5 receptor": {"test_system": "human D5 receptor", "details": "stated in discussion, no data or reference printed; cited from earlier work"}, "[3]": {"test_system": "acetylcholine levels in the PFC of WT and D1 KO mice", "experiment": "Prefrontal cortex acetylcholine levels via microdialysis, WT and D1 KO mouse", "assay_type": "in vivo", "details": "10 mg/kg SC", "description": "Adult male Sprague-Dawley rats (280–360 g) were obtained from Charles-River Laboratories, Raleigh, NC and male C57BL/6J DRD1a WT and D1 DA receptor knockout mice (DRD1a-905781) were obtained from The Jackson Laboratories (Bar Harbor, ME). Animals were housed on a 12-h light/dark cycle with free access to food and water and allowed to acclimate for at least 5 d after arrival. Aseptic technique was used during the surgical procedure in order to prevent infection. On the day of the procedure animals were anesthetized with isoflurane (4%) and their heads shaved. The animals were then placed into a Kopf stereotaxic frame, the surgical area disinfected by swabbing with Provodine solution, and the area isolated with a sterile surgical drape. Anesthesia was maintained with isoflurane (2.5%–3%) delivered through a nose cone using a Univentor 400 anesthesia unit. Animals were given a 0.1 ml subcutaneous (s.c.) injection of Metacam (NSAID, meloxicam, 5 mg/ml, Boehringer Ingelheim) as a post-operative analgesic. Marcaine (bupivacaine, 0.5%, Hospira, Lake Forest, IL), a long acting local anesthetic, was administered s.c. at the surgical area to minimize pain and discomfort.\nA 1.5–2 cm incision was made along the midline of the skull, beginning from a point just behind the eyes and running posterior. The skin was retracted with hemostats and the skull was further exposed using blunt dissection with cotton swabs. Bleeding capillaries were cauterized, and the skull dried with a sterile gauze sponge.\nA microdialysis guide cannula [Bioanalytical Systems Inc (BAS), West Lafayette, IN, part # MD-2251] was placed into a guide holder on the stereotaxic frame and positioned over “Bregma”. The guide cannula was positioned over the PFC (A-P, +3.2 mm; M-L, +0.7 mm, left, relative to bregma) and the location marked on the skull. Using a 0.7 mm burr, a hole was made in the skull at the cannula position. […]\nFor conventional analysis, ACh was analyzed by high performance liquid chromatography (HPLC) utilizing a modification of the BAS ACh-choline assay kit (BAS part # MF-8910). […]"}, "[4]": {"experiment": "Plasma exposure (PK), rat", "assay_type": "in vivo", "details": "10 mg/kg SC, 1.5 h", "protocol": "as §1, with “and the […]” for “and the”"}}, "data": [{"compound": "Cc1cc(Oc2nccc3occc23)ccc1-c1c(C)ncc2nccn12", "note": "[PF-6142]", "values": [{"measurement": "brain penetration", "setting": "[1]; brain tissues of rat and mouse", "result": "fully brain penetrant"}, {"measurement": "unbound concentrations between the brain and plasma compartments", "setting": "[1]; rat and mouse", "result": "approaching unity"}, {"measurement": "effect on %PPI in combination with risperidone", "setting": "[2]; PF-6142 1.78 mg/kg + risperidone, 3, 7, 9 dB prepulse", "result": "no effect"}, {"measurement": "%PPI vs vehicle", "setting": "[2]; PF-6142 1.78 mg/kg alone, significant only at 9 dB prepulse intensity (p=0.029)", "result": "modest impairments in %PPI"}, {"measurement": "% PPI, PF-6142 alone (pilot experiments, Figure 4C)", "setting": "[2]; adult C57BL/6J mice", "result": "modest non-significant reductions in % PPI"}, {"measurement": "effect on risperidone (0.56 mg/kg)-reduced startle responses", "setting": "[2]; in the presence of PF-6142", "result": "not altered"}, {"measurement": "affinity", "setting": "human D5 receptor", "result": "moderate affinity"}, {"measurement": "PFC ACh levels vs vehicle (AUC 75-180 min)", "setting": "[3]; D1 KO mice", "result": "not in the KO group"}, {"measurement": "PFC ACh levels vs vehicle (AUC 75-180 min)", "setting": "[3]; WT mice", "result": "increased ACh levels"}, {"measurement": "PF-6142 plasma concentration", "setting": "[4]", "result": 1260, "unit": "ng/mL"}]}]}
